Like-named read-outs stand apart in the source and are kept apart here.
Test system: C. elegans
Assay: microbe, parasite or virus in culture
Conditions: Caenorhabditis elegans
[1] = 0 h, read-out: Percentage of motility inhibition 0 h, Table S2, C. elegans SS assay, 110 μM, 0 h, averages of 4 data points
[2] = 24 h, read-out: Percentage of motility inhibition 24 h, Table S2, C. elegans SS assay, 110 μM, 24 h, averages of 4 data points
[3] = 0 h, read-out: Percentage of motility inhibition 0 h
[4] = 24 h, read-out: Percentage of motility inhibition 24 h

Compound `C=C1C[C@@]23CC[C@H]4[C@@](C)(CCC[C@@]4(C)C(=O)O[C@@H]4O[C@H](CO)[C@@H](O)[C@H](O)[C@H]4O)[C@@H]2CC[C@]1(O[C@@H]1O[C@H](CO)[C@@H](O)[C@H](O)[C@H]1O)C3` [Rubusoside] has an inhibition at 110 µM [1] of 0% and an inhibition at 110 µM [2] of 18%.
Work on `O=c1c2ccccc2nc2n1CCc1c-2[nH]c2ccccc12` [Rutaecarpine] yielded an inhibition at 110 µM [1] of 0% and an inhibition at 110 µM [2] of 24%.
`C[C@@H]1O[C@@H](OC[C@H]2O[C@@H](Oc3c(-c4ccc(O)c(O)c4)oc4cc(O)cc(O)c4c3=O)[C@H](O)[C@@H](O)[C@@H]2O)[C@H](O)[C@H](O)[C@H]1O` [Rutin] gave an inhibition at 110 µM [1] of 4% and an inhibition at 110 µM [2] of 0%.
`C=C1CCC2(C(C)C)CC12` (centres unmarked) [Sabinene] was tested, and the inhibition at 110 µM [1] was 0% and the inhibition at 110 µM [2] was 20%.
`C[C@H]1O[C@@H](O[C@H]2CC[C@@]3(C)[C@@H](CC[C@]4(C)[C@@H]3C=C[C@]35OC[C@@]6(CCC(C)(C)C[C@H]63)[C@@H](O)C[C@]54C)[C@]2(C)CO)[C@H](O)[C@@H](O[C@@H]2O[C@H](CO)[C@@H](O)[C@H](O)[C@H]2O)[C@H]1O` [Saikosaponin A] showed an inhibition at 110 µM [1] of 2% and an inhibition at 110 µM [2] of 4%.
Compound `COc1cc(O)c2c(c1)O[C@H](c1ccc(O)cc1)CC2=O` [Sakuranetin] has an inhibition at 110 µM [1] of 19% and an inhibition at 110 µM [2] of 18%.
Work on `NC(=O)c1ccccc1O` [Salicylamide] yielded an inhibition at 110 µM [1] of 2% and an inhibition at 110 µM [2] of 0%.
`O=C(Nc1ccccc1)c1ccccc1O` [Salicylanilide] was tested, and the inhibition at 110 µM [1] was 43% and the inhibition at 110 µM [2] was 21%.
For `O=C(O)c1ccccc1O` [Salicylic acid], the inhibition at 110 µM [1] was 12% and the inhibition at 110 µM [2] was 8%.
For `COc1cc2c(cc1OC)[C@H](C)NCC2` [Salsolidine], the inhibition at 110 µM [1] was 0% and the inhibition at 110 µM [2] was 0%.
With `COc1ccc(-c2cc(=O)c3c(O)c(OC)c(OC)cc3o2)cc1` [Salvigenin] the inhibition at 110 µM [1] was 22% and the inhibition at 110 µM [2] was 3%.
`O=c1cc(-c2ccc(O)cc2)oc2cc(O[C@@H]3O[C@H](CO)[C@@H](O)[C@H](O)[C@H]3O)c([C@@H]3O[C@H](CO)[C@@H](O)[C@H](O)[C@H]3O)c(O)c12` [Saponarin] gave an inhibition at 110 µM [1] of 1% and an inhibition at 110 µM [2] of 1%.
In the case of `O=C1/C(=C/c2ccc(O)c(O)c2)COc2cc(O)ccc21` [Sappanone A], the inhibition at 110 µM [1] is reported as 0% and the inhibition at 110 µM [2] is reported as 0%.
Compound `CC(C)(C)NC(=O)[C@@H]1C[C@@H]2CCCC[C@@H]2CN1C[C@@H](O)[C@H](Cc1ccccc1)NC(=O)[C@H](CC(N)=O)NC(=O)c1ccc2ccccc2n1` [Saquinavir] has an inhibition at 110 µM [1] of 37% and an inhibition at 110 µM [2] of 0%.
Compound `C[C@@H]1[C@H]2c3cc4c(cc3O[C@@]35OCOC3=CC(=O)[C@H](C[C@H]1C)[C@@H]25)OCO4` [Sauchinone] has an inhibition at 110 µM [1] of 18% and an inhibition at 110 µM [2] of 25%.
In the case of `C=C[C@](C)(O)CC[C@@H]1[C@@]2(C)CCCC(C)(C)[C@@H]2CC[C@@]1(C)O` [Sclareol], the inhibition at 110 µM [1] is reported as 28% and the inhibition at 110 µM [2] is reported as 10%.
In the case of `O=c1cc(-c2ccc(O)cc2)oc2cc(O)c(O)c(O)c12` [Scutellarein], the inhibition at 110 µM [3] is reported as 49% and the inhibition at 110 µM [4] is reported as 3%.
`O=C(O)[C@H]1O[C@@H](Oc2cc3oc(-c4ccc(O)cc4)cc(=O)c3c(O)c2O)[C@H](O)[C@@H](O)[C@@H]1O` [Scutellarin] was tested, and the inhibition at 110 µM [1] was 31% and the inhibition at 110 µM [2] was 1%.
Work on `Cc1ncc([N+](=O)[O-])n1CC(C)O` (centres unmarked) [Secnidazole] yielded an inhibition at 110 µM [3] of 26% and an inhibition at 110 µM [4] of 3%.
`C/C=C1/C[C@@H](C)[C@@](C)(O)C(=O)OCC2=CC[N+]3([O-])CC[C@@H](OC1=O)[C@@H]23` (some centres unmarked) [Senecionine N‐oxide] gave an inhibition at 110 µM [1] of 39% and an inhibition at 110 µM [2] of 43%.
Compound `C/C=C1/C[C@@H](C)[C@@](C)(O)C(=O)OCC2=CCN3CC[C@@H](OC1=O)[C@@H]23` [Senecionine] has an inhibition at 110 µM [3] of 0% and an inhibition at 110 µM [4] of 24%.
For `C=C1C/C(=C/C)C(=O)O[C@@H]2CCN3CC=C(COC(=O)[C@]1(C)O)[C@H]23` [Seneciphylline], the inhibition at 110 µM [1] was 0% and the inhibition at 110 µM [2] was 1%.

From paper PMC11855827, “High-Throughput Screening of Five Compound Libraries for Anthelmintic Activity and Toxicity Leads to the Discovery of Two Flavonoid Compounds” (International Journal of Molecular Sciences, 2025)
